Assay results as given in patent publication US12577556B2, “Perturbation beads for use in assays” (Zafrens Inc., priority 2022, dated 2026).

tested on: Jurkat cells engineered to have enhanced green fluorescent protein (eGFP) reporter fused to nuclear factor of activated T cells (NFAT) transcription factor; assay: NFAT-eGFP reporter assay in Jurkat cells with compounds photoreleased from labeled perturbation beads; type: cell-based; details: compounds released from beads by 10 seconds of 365 nm light, 60 mW/cm^2
Method: Individual beads were added to wells of a multiwell assay device. Jurkat cells engineered to have enhanced green fluorescent protein (eGFP) reporter fused to nuclear factor of activated T cells (NFAT) transcription factor were added to each well (cells purchased from BPS Bioscience, Catalog #78384). The compounds were released from the beads by exposure to 10 seconds of 365 nm wavelength light having illumination power of 60 mW/cm^2 and allowed to interact with the cells in the respective wells. […] This exemplifies using optically detectible labels on the bead to code for perturbation compounds and/or building blocks and corresponding that visible code to a cell perturbation.

| Structure (SMILES) | change in NFAT-eGFP expression levels |
| --- | --- |
| COc1cc2c(cc1Nc1ncc(C(=O)O)c(Nc3c(F)cccc3C(F)(F)F)n1)CN(C)CC2 [HPK, 4-{[2-Fluoro-6-(trifluoromethyl)phenyl]amino}-2-[(6-methoxy-2-methyl-1,2,3,4-tetrahydro-7-isoquinolinyl)amino]-5-pyrimidine-5-carboxylic acid] | minimal change |
| Cc1sc2c(c1C)C(c1ccc(Cl)cc1)=NC([C@@H](C(=O)O)C(C)(C)C)c1nnc(C)n1-2 (stereo partly drawn) [JQ1, ((S)-tert-butyl 2-(4-(4-chlorophenyl)-2,3,9-trimethyl-6H-thieno[3,2-f] [1,2,4]triazolo[4,3-a] [1,4]diazepin-6-yl)acetic acid)] | minimal change |
| O=C1CCC(N2Cc3cc(C(=O)O)ccc3C2=O)C(=O)N1 (stereo not drawn) [LNI, 2-(2,6-dioxopiperidin-3-yl)-1-oxoisoindoline-5-carboxylic acid] | minimal change |
